In PMC6629613, “Selective and competitive inhibition of kynurenine aminotransferase 2 by glycyrrhizic acid and its analogues” (Scientific Reports, 2019):
Like-named read-outs stand apart in the source and are kept apart here.

Columns and labels:
human KAT2 [1] = molecular target: T1, human KAT2 (Homo sapiens, UniProt Q8N5Z0); assay: Human KAT2 enzyme inhibition, microplate fluorescence assay of KYNA; format: biochemical
T1 construct: made in house; host or cells: insect Sf9 cells (baculovirus)
Protocol: High-throughput screening assays for inhibitors of human KAT2 were conducted using a microplate fluorescence assay for kynurenine aminotransferase[26] with minor modifications. In these assays, KAT2 enzyme activities were measured in black 384-well untreated plates. The human KAT2 reaction mixture (20 μL) contained 10 ng/μL recombinant human KAT2, 1 mM L-KYN, 1 mM α-ketoglutaric acid, […], 0.005% Tween 20 and 150 mM AMP buffer (pH 9.5), and was added to 384-well plates containing compounds using a Multidrop dispenser (Thermo Fisher Scientific, USA). The compound library comprised about 13,000 compounds from the Drug Discovery Initiative at the University of Tokyo. The compound library includes about 9,600 diverse compounds for pilot screening and about 3,400 known bioactive compounds. All compounds were dissolved and diluted in DMSO to a final concentration of 10 μM. Reaction mixtures were incubated for 2 h at room temperature, and 20 μL aliquots of 300 mM zinc acetate (pH 5.5) were then added directly using a Multidrop dispenser. Fluorescence intensities of KYNA were measured using an ARVO X Multi Label Reader (PerkinElmer, USA) at an excitation wavelength of 340 nm and an emission wavelength of 460 nm. Assay quality was validated by calculating signal–background and Z’ factor. These assays identified approximately 20 candidate KAT2 inhibitors with potent inhibitory activity from about 13,000 compounds. Candidate compounds were validated in quadruplicate KAT2 enzyme activity assays.
Inhibitory activities of the identified compounds against KAT1 and KAT2 were measured using the enzyme activity assays described above. KAT1 reaction mixtures (20 μL) contained 10 ng/μL recombinant human KAT1, 1 mM L-KYN, 1 mM sodium pyruvate, 100 μM PLP, 0.005% Tween 20 and inhibitors at various concentrations in 150 mM 2-amino-2-methyl-1-propanol (AMP) buffer (pH 7.4 or 9.5). […] Following the addition of 20 μL aliquots of 300 mM zinc acetate, fluorescence intensities of KYNA were measured using an ARVO X Multi Label Reader (PerkinElmer, USA).
(§1) To determine steady state kinetic parameters for the substrate L-KYN, 50 μL reaction mixtures containing 10 ng/μL recombinant human KAT2, 1 mM α-KG, 100 μM PLP, 0.005% Tween 20, L-KYN at concentrations of 10, 5, 2.5, 1.25, 0.62, 0.31 and 0.15 mM and GL, GA or CBX or PF-04859989 at 4.5, 6.0 and 3.5 μM and 300 nM, respectively. Following incubation for 30 min at 37 °C, reactions were stopped by adding 3% perchloric acid at a 1:1 ratio. KYNA concentrations were measured using the same HPLC method as described above. Double reciprocal plots were used to determine types of inhibition. Competitive inhibition constants (Ki) for GL, GA and CBX were calculated using the global fit formula (GraphPad Prism v6.07)[60],[61] as follows: v=Vmax∗[S]/(Kmobs+[S])andKmobs=Km×(1+[I]/Ki), where v = initial velocity, Vmax = maximum velocity, [S] = substrate concentration, Km = Michaelis–Menten constant and [I] = inhibitor concentration. The Ki value of PF-04859989 was calculated using the global fit formula as follows: Vmaxinh=Vmax/(1+[I]/Ki)andKmobs=Vmaxinh×[S]/(Km+[S]), where Vmaxinh = maximum enzyme velocity for the concentration of inhibitor. IC50 values were determined by nonlinear curve fitting using GraphPad Prism v6.07. All statistical analyses were performed using GraphPad Prism v6.07.

human KAT1 = molecular target: T2, human KAT1 (Homo sapiens, UniProt Q16773); assay: Human KAT1 enzyme inhibition, microplate fluorescence assay of KYNA; format: biochemical; details: recombinant human KAT1, 1 mM L-KYN, 1 mM sodium pyruvate
T2 construct: made in house; host or cells: insect Sf9 cells (baculovirus)
T2 sequence (Q16773 1-422): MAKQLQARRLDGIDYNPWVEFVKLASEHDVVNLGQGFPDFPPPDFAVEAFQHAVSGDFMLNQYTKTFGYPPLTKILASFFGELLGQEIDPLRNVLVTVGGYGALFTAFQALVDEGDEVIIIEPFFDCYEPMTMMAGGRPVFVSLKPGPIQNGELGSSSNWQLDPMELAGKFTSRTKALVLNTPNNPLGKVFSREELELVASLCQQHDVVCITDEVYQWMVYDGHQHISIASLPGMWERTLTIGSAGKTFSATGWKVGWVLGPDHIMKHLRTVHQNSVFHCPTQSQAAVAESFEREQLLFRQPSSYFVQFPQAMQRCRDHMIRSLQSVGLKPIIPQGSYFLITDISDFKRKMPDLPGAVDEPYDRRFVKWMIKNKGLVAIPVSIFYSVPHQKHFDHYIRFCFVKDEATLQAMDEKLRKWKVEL
Protocol: (§2) Inhibitory activities of the identified compounds against KAT1 and KAT2 were measured using the enzyme activity assays described above. KAT1 reaction mixtures (20 μL) contained 10 ng/μL recombinant human KAT1, 1 mM L-KYN, 1 mM sodium pyruvate, 100 μM PLP, 0.005% Tween 20 and inhibitors at various concentrations in 150 mM 2-amino-2-methyl-1-propanol (AMP) buffer (pH 7.4 or 9.5). Human and mouse KAT2 reaction mixtures (20 μL) contained 10 ng/μL recombinant human or mouse KAT2, 1 mM L-KYN, 1 mM α-ketoglutaric acid, 100 μM PLP, 0.005% Tween 20 and inhibitors at various concentrations in 150 mM AMP buffer (pH 9.5). Following the addition of 20 μL aliquots of 300 mM zinc acetate, fluorescence intensities of KYNA were measured using an ARVO X Multi Label Reader (PerkinElmer, USA).
as §1

human KAT4 = molecular target: T3, human KAT4 (Homo sapiens, UniProt P00505); assay: Human KAT4 enzyme inhibition, HPLC analysis of KYNA; format: biochemical; details: recombinant human KAT4, 1 mM L-KYN, Tris buffer pH 7.5, HPLC
T3 construct: made in house; host or cells: insect Sf9 cells (baculovirus)
T3 sequence (P00505 30-430): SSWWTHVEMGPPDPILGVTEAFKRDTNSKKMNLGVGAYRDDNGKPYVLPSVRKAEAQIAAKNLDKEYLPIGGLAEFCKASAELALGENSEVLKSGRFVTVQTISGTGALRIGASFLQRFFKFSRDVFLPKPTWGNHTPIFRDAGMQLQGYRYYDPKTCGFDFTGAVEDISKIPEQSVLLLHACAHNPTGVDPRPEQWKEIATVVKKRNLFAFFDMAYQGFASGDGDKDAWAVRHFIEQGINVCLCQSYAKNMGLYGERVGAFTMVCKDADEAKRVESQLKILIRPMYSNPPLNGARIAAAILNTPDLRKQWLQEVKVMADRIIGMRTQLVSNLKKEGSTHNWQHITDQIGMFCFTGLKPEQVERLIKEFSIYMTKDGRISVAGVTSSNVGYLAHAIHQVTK
Protocol: (§3) KAT3 and KAT4 enzyme activities were measured using high performance liquid chromatography (HPLC) analyses of reaction products. Briefly, KAT3 reaction mixtures (50 μL) contained 10 ng/μL recombinant human KAT3, 1 mM L-KYN, 1 mM sodium pyruvate, 100 μM PLP, 0.005% Tween 20 and inhibitors at various concentrations in 150 mM AMP buffer (pH 9.5). KAT4 reaction mixtures (50 μL) contained recombinant human KAT4, 1 mM L-KYN, 1 mM α-ketoglutaric acid, 100 μM PLP, 0.005% Tween 20 and inhibitors at various concentrations in 100 mM Tris buffer (pH 7.5). Reaction mixtures were incubated for 1 h at 37 °C and reactions were then stopped by adding 3% perchloric acid at a ratio of 1:1. KYNA contents of reaction mixtures were then determined using HPLC (Shimadzu, Kyoto, Japan) following isocratic elution from a reverse-phase column (TSKgel ODS-100V, 3 μm, 4.6 mm [ID] × 150 mm [L]; Tosoh, Tokyo, Japan) using a mobile phase containing 10 mM sodium acetate with 2% acetonitrile (pH adjusted to 4.5) at flow rate of 0.8 mL/min. KYNA was detected using a fluorescence detector (RF-20Axs) at an excitation wavelength of 344 nm and an emission wavelength of 380 nm.
as §1, with “Double reciprocal plots were used to determine types of inhibition.” left out, “The Ki value of PF-04859989 was calculated using the global fit formula as follows: Vmaxinh=Vmax/(1+[I]/Ki)andKmobs=Vmaxinh×[S]/(Km+[S]), where Vmaxinh = maximum enzyme velocity for the concentration of inhibitor.” left out, “All statistical analyses were performed using GraphPad Prism v6.07.” left out

human KAT2 [2] = molecular target: T1, human KAT2; assay: Human KAT2 inhibition kinetics with varying KYN (Lineweaver-Burk, global fit), HPLC; format: biochemical; details: for Ki: global fit formula, mean ± SEM, read-out: Ki (inhibition constant); for type of inhibition: inhibitor close to its IC50, Lineweaver-Burk
Protocol: as §1

mouse KAT2 = molecular target: T4, mouse KAT2 (Mus musculus, UniProt Q9WVM8); assay: Mouse KAT2 enzyme inhibition, microplate fluorescence assay of KYNA; format: biochemical; details: recombinant mouse KAT2, 1 mM L-KYN, AMP buffer pH 9.5; mean ± SEM
T4 construct: made in house; host or cells: insect Sf9 cells (baculovirus)
Protocol: as §2, §1

human KAT2 [3] = molecular target: T1, human KAT2; design: method as in PMID 18537204, PMID 27367665; details: read-out: reported IC50; cited from earlier work
[4] = cited from earlier work
human KAT3 = molecular target: T5, human KAT3 (Homo sapiens, UniProt Q6YP21); assay: Human KAT3 enzyme inhibition, HPLC analysis of KYNA; format: biochemical; details: recombinant human KAT3, 1 mM L-KYN, AMP buffer pH 9.5, HPLC; mean ± SEM
T5 construct: purchased OriGene Technologies, Inc
Protocol: as §3, with “nm. […]” for “nm.”

[5] = human KAT2 at physiological conditions (pH 7.4)
[6] = recombinant human KAT2, 1 mM L-KYN, AMP buffer pH 9.5, mean ± SEM, three experiments

T4 sequence (Q9WVM8 30-425): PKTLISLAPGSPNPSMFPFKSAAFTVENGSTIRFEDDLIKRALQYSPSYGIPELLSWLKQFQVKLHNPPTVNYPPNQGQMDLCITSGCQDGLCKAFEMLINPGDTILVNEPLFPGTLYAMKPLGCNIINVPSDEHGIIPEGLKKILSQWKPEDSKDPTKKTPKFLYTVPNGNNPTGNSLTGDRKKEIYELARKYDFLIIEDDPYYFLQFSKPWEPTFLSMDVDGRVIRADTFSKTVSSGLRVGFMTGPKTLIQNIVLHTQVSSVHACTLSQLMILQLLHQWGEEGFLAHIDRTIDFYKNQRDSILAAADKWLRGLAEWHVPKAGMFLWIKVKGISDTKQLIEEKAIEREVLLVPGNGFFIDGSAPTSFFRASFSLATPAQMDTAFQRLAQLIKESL
T1 sequence (Q8N5Z0 30-425): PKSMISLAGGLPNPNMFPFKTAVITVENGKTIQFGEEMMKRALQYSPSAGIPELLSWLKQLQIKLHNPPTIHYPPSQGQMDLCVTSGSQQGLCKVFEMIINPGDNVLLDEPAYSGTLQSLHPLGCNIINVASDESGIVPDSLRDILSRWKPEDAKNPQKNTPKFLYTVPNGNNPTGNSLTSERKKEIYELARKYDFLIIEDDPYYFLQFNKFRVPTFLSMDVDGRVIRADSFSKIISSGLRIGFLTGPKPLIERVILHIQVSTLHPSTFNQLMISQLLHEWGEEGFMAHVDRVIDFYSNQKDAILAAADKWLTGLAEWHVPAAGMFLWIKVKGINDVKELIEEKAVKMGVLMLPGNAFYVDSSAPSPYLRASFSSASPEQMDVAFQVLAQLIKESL
T5 sequence (Q6YP21 whole entry): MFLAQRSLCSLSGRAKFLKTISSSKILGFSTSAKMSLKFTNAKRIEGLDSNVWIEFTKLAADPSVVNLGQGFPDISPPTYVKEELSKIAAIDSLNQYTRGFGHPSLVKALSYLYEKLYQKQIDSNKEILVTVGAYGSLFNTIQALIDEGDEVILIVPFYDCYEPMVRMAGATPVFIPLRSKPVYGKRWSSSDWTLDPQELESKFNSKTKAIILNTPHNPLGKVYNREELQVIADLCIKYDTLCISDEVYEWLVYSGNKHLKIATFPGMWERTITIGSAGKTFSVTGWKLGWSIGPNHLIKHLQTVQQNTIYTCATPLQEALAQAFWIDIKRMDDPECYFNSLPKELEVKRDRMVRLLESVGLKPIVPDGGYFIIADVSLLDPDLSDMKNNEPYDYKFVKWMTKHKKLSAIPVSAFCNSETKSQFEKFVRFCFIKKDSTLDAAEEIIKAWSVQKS

IC50 (human KAT2 [1]; [5]) [µM] | IC50 (human KAT2 [1]; [6]) [µM] | IC50 (human KAT1) [µM] | IC50 (human KAT4) [µM] | Ki (human KAT2 [2]) [µM] | type of inhibition (human KAT2 [2]) | IC50 (mouse KAT2) [µM] | IC50 (human KAT3) [µM] | Compound | IC50 (human KAT2 [3]) [µM] | passage through the BBB [4] | IC50 (human KAT2 [1]; KAT2, as determined in our assays) [µM]
9.87 ± 0.32 | 6.96 ± 0.37 | > 500 | > 500 | 6.92 ± 0.6 | competitive inhibitors of KYN | 56.8 ± 1.45 | – | CC1(C)[C@@H](O)CC[C@]2(C)[C@H]3C(=O)C=C4[C@@H]5C[C@@](C)(C(=O)O)CC[C@]5(C)CC[C@@]4(C)[C@]3(C)CC[C@@H]12 [GA, glycyrrhetinic acid] | – | – | –
– | – | – | – | – | – | – | – | (S)-4-(ethylsulfonyl)benzoylalanine [S-ESBA] | ~1000 | – | –
3.34 ± 0.25 | 3.9 ± 0.37 | > 500 | > 500 | 4.11 ± 0.37 | competitive inhibitors of KYN | 19.8 ± 0.34 | > 500 | CC1(C)[C@@H](OC(=O)CCC(=O)O)CC[C@]2(C)[C@H]3C(=O)C=C4[C@@H]5C[C@@](C)(C(=O)O)CC[C@]5(C)CC[C@@]4(C)[C@]3(C)CC[C@@H]12 [CBX, carbenoxolone] | – | failed to pass through the BBB | –
– | – | – | – | – | – | – | – | O=C(O)C(Cc1ccccc1)N1C(=O)c2cc(Cl)c(Cl)cc2C1=O (centres unmarked) [NS-1502] | 315 | – | –
7.93 ± 0.17 | 4.51 ± 0.2 | > 500 | > 500 | 10.4 ± 1.62 | competitive inhibitors of KYN | 86.2 ± 1.94 | > 500 | CC1(C)[C@@H](O[C@H]2O[C@H](C(=O)O)[C@@H](O)[C@H](O)[C@H]2O[C@@H]2O[C@H](C(=O)O)[C@@H](O)[C@H](O)[C@H]2O)CC[C@]2(C)[C@H]3C(=O)C=C4[C@@H]5C[C@@](C)(C(=O)O)CC[C@]5(C)CC[C@@]4(C)[C@]3(C)CC[C@@H]12 [GL, glycyrrhizic acid] | – | – | –

Compound | IC50 (human KAT2 [1]; [5]) [µM] | IC50 (human KAT2 [1]; [6]) [µM] | IC50 (human KAT1) [µM] | IC50 (human KAT4) [µM] | Ki (human KAT2 [2]) [µM] | type of inhibition (human KAT2 [2]) | IC50 (mouse KAT2) [µM] | IC50 (human KAT3) [µM] | IC50 (human KAT2 [3]) [µM] | passage through the BBB [4] | IC50 (human KAT2 [1]; KAT2, as determined in our assays) [µM]
N[C@H]1Cc2ccccc2N(O)C1=O [PF-04859989] | – | – | – | – | 0.22 ± 0.01 | maximum reaction rates (Vmax) varied but the Michaelis–Menten constant (Km) did not change | – | – | – | – | 0.3
